Laboratory results from article PMC10119282, “Molecular characterization of AIFM2/FSP1 inhibition by iFSP1-like molecules” (Cell Death & Disease, 2023).

Biological target: T1, hFSP1 WT (Homo sapiens, UniProt Q9BRQ8)
T1 construct: HisSUMO (cleaved yes); made in house; host or cells: E. coli BL21
T1 sequence (Q9BRQ8 1-373): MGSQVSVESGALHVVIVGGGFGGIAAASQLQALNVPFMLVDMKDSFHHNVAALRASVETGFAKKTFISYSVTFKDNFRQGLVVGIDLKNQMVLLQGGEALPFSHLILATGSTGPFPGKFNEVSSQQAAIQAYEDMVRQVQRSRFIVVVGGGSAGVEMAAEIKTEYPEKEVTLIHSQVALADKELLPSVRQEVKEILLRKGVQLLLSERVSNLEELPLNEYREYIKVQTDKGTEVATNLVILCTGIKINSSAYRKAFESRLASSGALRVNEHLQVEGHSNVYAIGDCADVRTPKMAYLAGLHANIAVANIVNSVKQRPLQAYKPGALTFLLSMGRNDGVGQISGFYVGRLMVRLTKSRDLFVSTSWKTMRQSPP
Experiment: Competition MST against pre-formed complex of hFSP1 WT and FSP1-Tracer
Type: binding
Experimental: FSP1 (human isoform 1, UniProt Q9BRQ8-1) WT (hFSP1 WT) and F360L (hFSP1 F360L) were expressed in E.coli BL21 as HisSUMO fusion protein. Cells were grown in lysogeny broth medium at 18 °C and induced with 0.5 mM isopropyl-β-thiogalactoside at a cell density A600 of 0.6. Cells were collected after overnight expression by centrifugation, resuspended in lysis buffer ([…], 50 mM Tris-HCl pH 8, 1 mM TCEP, 20 mM imidazole, protease inhibitor, DNase) and lysed by sonication. Cell debris was removed by centrifugation (30,000 × g) at 4 °C for 30 min, after which an IMAC purification was performed. Briefly, a HisTrap crude FF (5 mL) column was equilibrated to lysis buffer, lysates were loaded via the sample pump and the column was then washed with 50 mL lysis buffer. During the elution with a gradient to 100% IMAC elution buffer (300 mM NaCl, 50 mM Tris-HCl pH 8, 1 mM TCEP, 400 mM imidazole) over 100 mL, 5 mL fractions were collected. The pooled fractions were dialysed overnight in the presence of SenP2 SUMO protease at a ratio of 40:1 FSP1:SenP2. Afterwards, a reverse IMAC purification was performed on a HisTrap crude FF (5 mL) column. IMAC eluates were analysed by SDS PAGE and concentrated to 15 mL (hFSP1 WT) and 5 mL (hFSP1 F360L), respectively. […] Pure fractions were pooled (C12—D11 for hFSP1 WT and C7—D4 for hFSP1 F360L), analysed by SDS-PAGE (Supplementary Fig. 4) and concentrated to 5.8 mL at 285.9 µM (hFSP1 WT) and 1.2 mL at 269.5 µM (FSP1 F360L), flash frozen in liquid N2 and stored at −80 °C.
An MST buffer consisting of 1× phosphate-buffered saline (PBS; 137 mM NaCl, 2.7 mM KCl, 10 mM Na2HPO4, 1.8 mM KH2PO4, pH 7.4) with 2 mM reduced L-Glutathione (GSH, Sigma Aldrich, product number G4251) and 0.05% (v/v) Tween 20 (ITW Reagents, molecular biology grade, product number A4974) was used for all MST measurements. […] KD values were determined by applying a Hill-fit to a plot of Fnorm vs. hFSP1 WT/F360L concentration. […]

In the case of Cc1ccc(-c2c(C#N)c(N)n3c(nc4ccccc43)c2C#N)cc1 [iFSP1], the Ki (hFSP1 WT 5 µM and FSP1-Tracer 5 nM pre-formed complex) is reported as 61.6 nM and the “higher binding affinity to hFSP1 than NADH” value (iFSP1 Ki versus NADH Ki) is reported as 7.4 fold.
